Tests used:
Type in all cases: cell-based, mouse
mAgrp promoter = assay: NHR-promoter luciferase screen, mAgrp promoter; conditions: for Results of assays of transcription factor (+/- ligand) with mAgrp: Table 6d, luciferase activity relative to control (control = 1.00); for Luc. act., normalized to lacZ / Normalized Luc. act., normalized to control: mAgrp promoter, HR component with or without ligand; for Normalized Luc. act., normalized to control: relative to control; for luciferase/LacZ, mAgrp (selected results): mAgrp promoter-luciferase, NHR +/- ligand, control = 1.0
Experimental: (§1) The use, feasibility, and reproducibility of the functional NHR-promoter screen in a 48-well format have been tested validated. Briefly, there were co-expressed 50 ng of each NHR/NHR homodimer or NHR/RXR heterodimer with 100 ng promoter/luciferase construct and 50 ng of LacZ (as a control for transfection efficiency) in CV-1 cells using Fugene HD (Roche) as a transfection reagent (alternatively or additionally, a CMV-YFP construct can be used as a transfection control). Each of the nuclear hormone receptors that were used in these experiments was cloned into a pcDNA3.1 vector and comprised a C-terminally linked V5H6 tag. Twenty-four hours after transfection, appropriate ligands were added, where applicable, (see Table 5 for various ligands and concentrations and after 48 hrs, samples were assayed for luciferase and LacZ activity. To measure for luciferase activity 15 ul of sample was added to 30 ul of luciferase buffer (20 mM tricine, 1.07 mM MgCarbonate, 2.67 mM MgSulfate, 0.1 mM Naz-EDTA, 5 mM DTT, 5 mM ATP, 0.15 mg/ml CoA, 0.5 mM Luciferin), mixed briefly, and run in a Perkin Elmer Victor 5 luminometer. Thus, the functional NHR-promoter screen was used to observe the transcriptional activity of 29 promoters from various physiological pathways including inflammation, lipid and sugar metabolism, cholesterol transport, xenobiotic metabolism, and circadian rhythm.
(§2) The promoters that facilitate transcription of the indicated gene products that were tested using the protocols described herein are listed in the first row of the table. The nuclear hormone receptors and, where applicable, ligands that were assayed for their transcriptional effects on the promoters are listed in the first column of the table. The data represent the luciferase activity of each sample normalized to both the lacZ activity of that sample and to a control, e.g., no NHR or ligand, as customary in the art. As described previously, these normalizations allow the transcriptional activity of each reporter cell to be compared to other samples.
(§3) Tables 7-40 show the transcriptional effects of the hormone receptors, and, where applicable, ligands (orphan receptors are screened without ligand), on each individual promoter. […] The control data of each table are shown in their last rows.

mUCP1 promoter = assay: NHR-promoter luciferase screen, mUCP1 promoter; conditions: for Luc. act., normalized to lacZ / Normalized Luc. act., normalized to control: mUCP1 promoter reporter, co-transfected HR, with or without its ligand; for Normalized Luc. act., normalized to control: relative to control; for luciferase activity normalized to lacZ activity and to a control, mUCP!: mUCP! promoter-luciferase, CV-1 cells, NHR +/- ligand, control = 1.00
Experimental: as §1, §2, §3

mAdiponectin promoter = assay: NHR-promoter luciferase screen, mAdiponectin promoter; conditions: for Luc. act., normalized to lacZ / Normalized Luc. act., normalized to control: Adiponectin, HR component without or with its ligand; for mAdiponectin promoter reporter activity: transcription factor +/- ligand, control = 1.00
Experimental: as §1, §2, §3

mGhrelin promoter = assay: NHR-promoter luciferase screen, mGhrelin promoter; conditions: for Luc. act., normalized to lacZ / Normalized Luc. act., normalized to control: Table 8, mGhrelin; for Results of assays of transcription factor (+/- ligand) with mGhrelin: Table 6d, luciferase activity relative to control (control = 1.00); for luciferase/LacZ, mGhrelin (selected results): mGhrelin promoter-luciferase, NHR +/- ligand, control = 1.0
Experimental: as §1, §2, §3

mPgc1b promoter = assay: NHR-promoter luciferase screen, mPgc1b promoter; conditions: for Luc. act., normalized to lacZ / Normalized Luc. act., normalized to control: PGC1b promoter reporter, co-transfected HR, without or with its ligand; for Normalized Luc. act., normalized to control: relative to control; for luciferase activity normalized to lacZ activity and to a control, mPgc1b: mPgc1b promoter-luciferase, CV-1 cells, NHR +/- ligand, control = 1.00
Experimental: Briefly, there were co-expressed 50 ng of each NHR/NHR homodimer or NHR/RXR heterodimer with 100 ng promoter/luciferase construct and 50 ng of LacZ (as a control for transfection efficiency) in CV-1 cells using Fugene HD (Roche) as a transfection reagent (alternatively or additionally, a CMV-YFP construct can be used as a transfection control). Each of the nuclear hormone receptors that were used in these experiments was cloned into a pcDNA3.1 vector and comprised a C-terminally linked V5H6 tag.
as §2, §3

Substance | Results of assays of transcription factor (+/- ligand) with mAgrp (mAgrp promoter) | Luc. act., normalized to lacZ (mAgrp promoter) | Normalized Luc. act., normalized to control (mAgrp promoter) | Luc. act., normalized to lacZ (mUCP1 promoter) | Normalized Luc. act., normalized to control (mUCP1 promoter) | luciferase activity normalized to lacZ activity and to a control, mUCP! (mUCP1 promoter) | Luc. act., normalized to lacZ (mAdiponectin promoter) | Normalized Luc. act., normalized to control (mAdiponectin promoter) | mAdiponectin promoter reporter activity (mAdiponectin promoter) | Luc. act., normalized to lacZ (mGhrelin promoter) | Normalized Luc. act., normalized to control (mGhrelin promoter) | Results of assays of transcription factor (+/- ligand) with mGhrelin (mGhrelin promoter) | Luc. act., normalized to lacZ (mPgc1b promoter) | Normalized Luc. act., normalized to control (mPgc1b promoter) | luciferase activity normalized to lacZ activity and to a control, mPgc1b (mPgc1b promoter) | luciferase/LacZ, mAgrp (selected results) (mAgrp promoter) | luciferase/LacZ, mGhrelin (selected results) (mGhrelin promoter)
PNR: Photoreceptor-specific Nuclear Receptor (NR2E3), cDNA driver | 0.76 | 30.1 | 0.8 | 1.7 | 0.4 | 0.37 | 70.7 | 1.1 | 1.13 | 32.4 | 0.6 | 0.62 | 4.9 | 0.4 | 0.42 | – | –
AR: Androsterone Receptor (NR3C4), cDNA driver | 1.15 | 45.8 | 1.2 | 3.3 | 0.7 | 0.74 | 82.7 | 1.3 | 1.32 | 39.2 | 0.8 | 0.75 | 9.0 | 0.8 | 0.76 | – | –
PPARg: Peroxisome proliferator activated receptor γ (NR1C3), cDNA driver | 1.84 | 73.0 | 1.8 | 2.9 | 0.7 | 0.66 | 80.6 | 1.3 | 1.28 | 93.9 | 1.8 | 1.80 | 11.35 | 1.0 | 0.96 | 1.8 | 1.8
PPARa: Peroxisome proliferator activated receptor α (NR1C1), cDNA driver | 1.06 | 42.1 | 1.1 | 2.6 | 0.6 | 0.59 | 40.4 | 0.6 | 0.64 | 56.2 | 1.1 | 1.07 | 9.33 | 0.8 | 0.79 | – | –
ERR1: Estrogen Related Receptor α (NR3B1, ERRa), cDNA driver | 1.15 | 45.5 | 1.1 | 3.9 | 0.9 | 0.88 | 49.2 | 0.8 | 0.78 | 81.4 | 1.6 | 1.56 | 8.8 | 0.7 | 0.75 | – | –
TLX: Tailless (homolog of drosophila) (NR2E1), cDNA driver | 0.82 | 32.4 | 0.8 | 2.8 | 0.6 | 0.63 | 78.4 | 1.2 | 1.25 | 86.6 | 1.7 | 1.66 | 4.5 | 0.4 | 0.38 | – | –
LXRa: Liver X Receptor α (NR1H3), cDNA driver | 1.58 | 62.5 | 1.6 | 3.1 | 0.7 | 0.69 | 60.7 | 1.0 | 0.97 | 56.7 | 1.1 | 1.08 | 8.40 | 0.7 | 0.71 | – | –
NR4a1: NR4a1 (NR4A1; NUR77), nuclear hormone receptor cDNA driver | 1.17 | 46.3 | 1.2 | 7.6 | 1.7 | 1.70 | 85.6 | 1.4 | 1.36 | 54.5 | 1.0 | 1.04 | 17.1 | 1.4 | 1.45 | 1.2 | 1.0
